This is an account of results in patent US9656962B2, “Ring-contracted morphinans and the use thereof” (Purdue Pharma L.P., priority 2013, dated 2017).

Format in all cases: biochemical
For test [1], the target named is κ-opioid receptor (Homo sapiens (Human), UniProt P41145). Kind of test: κ-opioid receptor [35S]GTPγS functional assay, U-2 OS cells (Table 5). To be noted: for Emax: relative to U69,593; for EC50: κ GTP. The method, then:
κ-Opioid Receptor Functional Assay Procedures: Functional [^35S]GTPγS binding assays were conducted as follows. κ opioid receptor membrane solution was prepared by sequentially adding final concentrations of 0.026 μg/μl κ membrane protein (in-house), 10 μg/mL saponin, 3 μM GDP and 0.20 nM [^35S]GTPγS to binding buffer (100 mM NaCl, 10 mM MgCl2, 20 mM HEPES, pH 7.4) on ice. The prepared membrane solution (190 μl/well) was transferred to 96-shallow well polypropylene plates containing 10 μl of 20× concentrated stock solutions of agonist prepared in DMSO. Plates were incubated for 30 min at a temperature of about 25° C. with shaking. Reactions were terminated by rapid filtration onto 96-well Unifilter GF/B filter plates (Perkin Elmer, Shelton, Conn.) using a 96-well tissue harvester (Packard) and followed by three filtration washes with 200 μl ice-cold binding buffer (10 mM NaH2PO4, 10 mM Na2HPO4, pH 7.4). Filter plates were subsequently dried at 50° C. for 2-3 hours. Fifty μl/well scintillation cocktail (Perkin Elmer, Shelton, Conn.) was added and plates were counted in a Packard Top-Count for 1 min/well.
κ GTP Emax (%) is the maximal effect elicited by a compound relative to the effect elicited by U69,593.
The following TABLE 5 provides results on the activity response of certain Compounds of the Invention at the μ- and κ-opioid receptors determined as described above using U-2 OS cells.
Background: GTPγS resists hydrolysis and so accumulates on activated G proteins.

Test [2] addresses T1, μ-opioid receptor (Homo sapiens (Human), UniProt P35372). The experiment in a line: μ-opioid receptor [35S]GTPγS functional assay, U-2 OS cells (Table 5). To be noted: for Emax: relative to DAMGO; for EC50: μ GTP. The procedure: μ-Opioid Receptor Functional Assay Procedures: [^35S]GTPγS functional assays were conducted using freshly thawed μ-receptor membranes prepared in-house from a cell line expressing recombinant μ opioid receptor in a HEK-293, CHO or U-2 OS cell background, or purchased from a commercial source (Perkin Elmer, Shelton, Conn.; or DiscovRx, Fremont, Calif.). Assay reactions were prepared by sequentially adding the following reagents to binding buffer (100 mM NaCl, 10 mM MgCl2, 20 mM HEPES, pH 7.4) on ice (final concentrations indicated): membrane protein (0.026 mg/mL), saponin ([…]), GDP ([…]) and [^35S]GTPγS (0.20 nM; Perkin Elmer, Shelton, Conn.). The prepared membrane solution (190 μl/well) was transferred to 96-shallow well polypropylene plates containing 10 μl of 20× concentrated stock solutions of the agonist [D-Ala^2, N-methyl-Phe^4 Gly-ol^5]-enkephalin (DAMGO) prepared in dimethyl sulfoxide (DMSO). Plates were incubated for 30 min at about 25° C. with shaking Reactions were terminated by rapid filtration onto 96-well Unifilter GF/B filter plates (Perkin Elmer, Shelton, Conn.) using a 96-well tissue harvester (Perkin Elmer, Shelton, Conn.) followed by three filtration washes with 200 μl of ice-cold wash buffer (10 mM NaH2PO4, 10 mM Na2HPO4, pH 7.4). Filter plates were subsequently dried at 50° C. for 2-3 hours. BetaScint scintillation cocktail (Perkin Elmer, Shelton, Conn.) was added (50 μl/well) and plates were counted using a Packard Top-Count for 1 min/well. Data were analyzed using the sigmoidal dose-response curve fitting functions in GraphPad PRISM v. 3.0, or an in-house function for non-linear, sigmoidal dose-response curve-fitting. [^35S]GTPγS functional assays can also be conducted using freshly thawed μ-receptor membranes prepared from a cell line expressing recombinant μ opioid receptor in a CHO-K1 cell background.
μ GTP Emax (%) is the maximal effect elicited by a compound relative to the effect elicited by DAMGO, a standard μ agonist.

For test [3], the target named is T1, μ-opioid receptor. Kind of test: μ-opioid receptor [35S]GTPγS functional assay, HEK-293 cells (Table 6). The following applies: for Emax: relative to DAMGO; for EC50: μ GTP. An outline of the steps:
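[35S]GTPγS (0.20 nM) binding in HEK-293 membranes expressing recombinant receptor (0.026 mg/mL protein), with GDP (3 mM) and saponin, HEPES buffer pH 7.4, 30 min at about 25° C. Bound radioactivity collected by filtration and counted. Emax (%) expressed relative to DAMGO from sigmoidal dose-response fits.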

Structures are written as SMILES. Where only a bound is given, the exact number is not on record here.

As for `CN(C)C(=O)[C@@H]1C[C@]23CCN(CC4CC4)[C@H](Cc4ccc(O)cc42)[C@]3(O)C1` [Compound 62, (2R,3aS,4R,9bS)-12-(cyclopropylmethyl)-3a,8-dihydroxy-N,N-dimethyl-1,2,3,3a,4,5-hexahydro-4,9b-(epiminoethano)cyclo-penta[a]naphthalene-2-carboxamide], in test [1], the Emax (commonly the greatest response seen or fitted, relative to the assay's reference) came to 109 ± 3.67% and the EC50 – broadly, the concentration that produces a half-maximal response – amounted to 23.6 ± 1.09 nM. In addition, in test [2], the Emax is 25 ± 0.58% and the midpoint of the response, the EC50, lay at 0.017 ± 0.00331 µM.

For the compound `COc1ccc2c(c1)[C@]13CCN(CC4CC4)[C@H](C2)[C@]1(O)C[C@H](C(=O)N1CCCC1)C3` [Compound 19, ((2R,3aS,4R,9bS)-12-(cyclopropylmethyl)-3a-hydroxy-8-methoxy-1,2,3,3a,4,5-hexahydro-4,9b-(epiminoethano)cyclo-penta[a]naphthalene-2-yl)(pyrrolidin-1-yl)methanone], in test [1], the Emax was found to be 97.7 ± 0.67% and a half-maximal effect (EC50) was put at 4720 ± 150 nM. In addition, in test [2], the Emax came to 29.3 ± 5.93% and the midpoint of the response, the EC50, lay at 2.96 ± 0.864 µM.

In the case of `N[C@H]1CC23CCN(CC4CC4)[C@H](Cc4ccc(O)cc42)[C@]3(O)C1` (stereo in doubt) [Compound 29, (2S,3aS,4R,9bS)-2-amino-12-(cyclopropylmethyl)-1,2,3,3a,4,5-hexahydro-4,9b-(epiminoethano)-cyclopenta[a]naphthalene-3a,8-diol], in test [1], the Emax worked out at 107 ± 3.18% and a half-maximal response (EC50) required 0.62 ± 0.04 nM. In test [2], the Emax is 22 ± 1.73% and a half-maximal response (EC50) required 0.00778 ± 0.00163 µM.

With `O=C([C@@H]1C[C@]23CCN(CC4CC4)[C@H](Cc4ccc(O)cc42)[C@]3(O)C1)N1CCOCC1` [Compound 58, ((2R,3aS,4R,9bS)-12-(cyclopropylmethyl)-3a,8-dihydroxy-1,2,3,3a,4,5-hexahydro-4,9b-(epiminoethano)cyclopenta-[a]naphthalen-2-yl)(morpholino)-methanone], in test [1], the Emax was 93.7 ± 4.48% and the 50% effective concentration (EC50) was determined as 24.3 ± 5.67 nM. Besides, in test [2], the Emax came to 21.7 ± 5.49% and the half-maximal effective concentration (EC50) amounted to 0.0143 ± 0.00543 µM.

Take `NC(=O)[C@H]1C[C@]23CCN(CC(F)(F)F)[C@H](Cc4ccc(O)cc42)[C@]3(O)C1` [Compound 76, (2S,3aS,4R,9bS)-3a,8-dihydroxy-12-(2,2,2-trifluoroethyl)-1,2,3,3a,4,5-hexahydro-4,9b-(epiminoethano)cyclo-penta[a]naphthalene-2-carboxamide]: the Emax was found to be 81 ± 6.66% in test [1] and 2% in test [2]. Moreover, the concentration giving a half-maximal response (EC50) was 923 ± 31.9 nM in test [1] and more than 20 µM in test [2] (bound given in μM).

For the compound `O=C(NCCc1ccccc1)[C@@H]1C[C@]23CCN(CC4CC4)[C@H](Cc4ccc(O)cc42)[C@]3(O)C1` [Compound 50, (2R,3aS,4R,9bS)-12-(cyclopropylmethyl)-3a,8-dihydroxy-N-phenethyl-1,2,3,3a,4,5-hexahydro-4,9b-(epiminoethano)-cyclopenta[a]naphthalene-2-carboxamide], in test [1], the Emax was 107.7 ± 0.88% and the EC50 stood at 1.95 ± 0.33 nM. In test [2], the Emax worked out at 23.3 ± 1.86% and the EC50 was found to be 0.0069 ± 0.00054 µM.

On to `COc1ccc2c(c1)[C@]13CCN(CC4CC4)[C@H](C2)[C@]1(O)C[C@@H](C(=O)N1CCCC1)C3` [Compound 20, ((2S,3aS,4R,9bS)-12-(cyclopropylmethyl)-3a-hydroxy-8-methoxy-1,2,3,3a,4,5-hexahydro-4,9b-(epiminoethano)cyclo-penta[a]naphthalene-2-yl)(pyrrolidin-1-yl)methanone], for which, in test [1], the Emax came out at 87.7 ± 4.33% and the response was half-maximal at 4400 ± 357 nM (EC50). Besides, in test [2], the Emax is 43.3 ± 2.4% and the EC50 amounted to 1.23 ± 0.0835 µM.

Regarding `NC(=O)[C@@H]1C[C@]23CCN(CC(F)(F)F)[C@H](Cc4ccc(O)cc42)[C@]3(O)C1` [Compound 75, (2R,3aS,4R,9bS)-3a,8-dihydroxy-12-(2,2,2-tritluoroethyl)-1,2,3,3a,4,5-hexahydro-4,9b-(epiminoethano)cyclo-penta[a]naphthalene-2-carboxamide], the Emax in test [1] is 69 ± 6.03%; in test [2], 2%. In addition, the EC50 in test [1] was 1260 ± 74.6 nM; in test [2] (bound given in μM) it was more than 20 µM.

Consider `CN1CC[C@]23C[C@@H](C(=O)NCc4ccc(Cl)c(Cl)c4)C[C@@]2(O)[C@H]1Cc1ccc(O)cc13` [Compound 99, (2R,3aS,4R,9bS)-N-(3,4-dichlorobenzyl)-3a,8-dihydroxy-12-methyl-1,2,3,3a,4,5-hexahydro-4,9b-(epiminoethano)-cyclopenta[a]naphthalene-2-carboxamide], for which, in test [3], the Emax amounted to 73.3 ± 1.2% and the EC50 was 0.244 ± 0.0295 µM.

Take `O=C(NCc1ccc(O)c(O)c1)[C@@H]1C[C@]23CCN(CC4CC4)[C@H](Cc4ccc(O)cc42)[C@]3(O)C1` [Compound 140, (2R,3aS,4R,9bS)-12-(cyclopropylmethyl)-N-(3,4-dihydroxybenzyl)-3a,8-dihydroxy-1,2,3,3a,4,5-hexahydro-4,9b-(epimino-ethano)cyclopenta[a]naphthalene-2-carboxamide]: the Emax in test [3] turned out to be 0.33 ± 0.67%. The EC50 in test [3] (bound given in μM) was more than 20 µM.

As for `Cc1ccc(CNC(=O)[C@@H]2C[C@]34CCN(CC5CC5)[C@H](Cc5ccc(C(N)=O)cc53)[C@]4(O)C2)cc1` [Compound 117, (2R,3aS,4R,9bS)-12-(cyclopropylmethyl)-3a-hydroxy-N^2-(4-methylbenzyl)-1,2,3,3a,4,5-hexahydro-4,9b-(epimino-ethano)cyclopenta[a]naphthalene-2,8-dicarboxamide], the Emax in test [3] was -1.21 ± 0.21%. In test [3] (bound given in μM), this compound came in with an EC50 of more than 20 µM.

In the case of `O=C(NCCc1ccc(Cl)cc1)[C@@H]1C[C@]23CCN(CC4CC4)[C@H](Cc4ccc(O)cc42)[C@]3(O)C1` [Compound 129, (2R,3aS,4R,9bS)-N-(4-chlorophenethyl)-12-(cyclopropylmethyl)-3a,8-dihydroxy-1,2,3,3a,4,5-hexahydro-4,9b-(epimino-ethano)cyclopenta[a]naphthalene-2-carboxamide], the Emax in test [3] worked out at 1%. Moreover, the concentration for a half-maximal effect (EC50) in test [3] (bound given in μM) is more than 20 µM.

In the case of `O=C(NCc1cccc(O)c1O)[C@H]1C[C@]23CCN(CC4CC4)[C@H](Cc4ccc(O)cc42)[C@]3(O)C1` [Compound 141, (2S,3aS,4R,9bS)-12-(cyclopropylmethyl)-N-(2,3-dihydroxybenzyl)-3a,8-dihydroxy-1,2,3,3a,4,5-hexabydro-4,9b-(epimino-ethano)cyclopenta[a]naphthalene-2-carboxamide], in test [3], the Emax turned out to be 47.4 ± 0.83% and a half-maximal effect (EC50) was put at 0.00117 ± 0.0001 µM.

As for `CC(C)CNC(=O)[C@H]1C[C@]23CCN(C)[C@H](Cc4ccc(O)cc42)[C@]3(O)C1` [Compound 102, (2S,3aS,4R,9bS)-3a,8-dihydroxy-N-isobutyl-12-methyl-1,2,3,3a,4,5-hexahydro-4,9b-(epiminoethano)cyclo-penta[a]naphthalene-2-carboxamide], in test [3], the Emax turned out to be 49.5 ± 4.94% and the EC50 was 0.655 ± 0.128 µM.

`O=C(NCc1ccc(F)cc1F)[C@@H]1C[C@]23CCN(CC4CC4)[C@H](Cc4ccc(O)cc42)[C@]3(O)C1` [Compound 147, (2R,3aS,4R,9bS)-12-(cyclopropylmethyl)-N-(2,4-difluorobenzyl)-3a,8-dihydroxy-1,2,3,3a,4,5-hexahydro-4,9b-(epimino-ethano)cyclopenta[a]naphthalene-2-carboxamide]: the Emax in test [3] is -1%. In test [3] (bound given in μM), this compound displayed an EC50 of more than 20 µM.
